Measured values taken from patent publication US11708562B2, “Differentiation of human embryonic stem cells” (Janssen Biotech, Inc., priority 2006, dated 2023).

System: H9 cultures
Assay: Definitive endoderm on varying concentrations of […] with Wnt-3a (real-time PCR)
Format: cell-based, human
Conditions: low serum, 100 ng/ml activin A and 20 ng/ml Wnt-3a
Description: H9 cells were cultured on plates coated with regular […] at a 1:60 to 1:10 dilution. The plates were coated with […] for 1 hr at room temperature.

Activin A: a member of the TGFβ superfamily; growth factor (R&D Systems) used to differentiate human embryonic stem cells
expression of CXCR4, GATA4, Goosecoid, HNF-3beta, and SOX-17 genes: led to the expression
